# Tests used:
# [1] = tested on: Staphylococcus aureus ATCC 43300 MRSA; assay: CO-ADD antibacterial assay (growth inhibition, MIC), MRSA; format: cell-based; conditions: read-out: MRSA MIC (CO-ADD)
# Outline: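 MIC was determined by 8-point 2-fold dilution from 32 µg/mL or 20 µM (≤0.5% DMSO), in duplicate, in cation-adjusted Mueller Hinton broth. Bacteria were seeded at mid-log phase (5×10^5 CFU/mL) and incubated 18 h at 37 °C without shaking. Growth was read by OD600, and MIC was taken as the lowest concentration giving ≥80% inhibition.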
# [2] = Distribution coefficient estimation using chromatography, gLogD (Monash); format: physicochemical; conditions: gradient HPLC retention against standard compounds, pH 7.4
# Description: Partition coefficient values (LogD) of the test compounds were estimated at pH 7.4 by the correlation of their chromatographic retention properties against the characteristics of a series of standard compounds with known partition coefficient values. The method employed is a gradient HPLC-based derivation of the method developed by Lombardo.[42] […]
# c) Distribution Coefficient Estimation using Chromatography (gLogDpH)
# Partition coefficient values (LogD) of the test compounds were estimated at pH 7.4 by correlation of their
# chromatographic retention properties against the characteristics of a series of standard compounds with known
# partition coefficient values. […]
# In Vitro Intrinsic Clearance […]
# Experimental results are tabulated on the following page(s).
# (1 picture or pasted object on this page, not shown here)
# [3] = Mouse liver microsome (MLM) metabolic stability (UNC); format: in vitro ADME
# Description: Supplement id3c00286_si_002.xlsx, sheet "Series 2 Data" | column: MLM Clint (mL/min/kg) (UNC); MLM t1/2 (min) (UNC); MLM E (UNC)
MIC [1] [µg/mL],chromatographic logD [2],MLM E (UNC) ([3]; mouse liver microsomes),"CLint scaled ([3]; mouse, liver microsomes) [mL/min/kg]","half-life ([3]; mouse, liver microsomes, read-out: MLM t1/2 (UNC)) [min]",SMILES
2,2.3,0.929,1170,4.8,c1ccc(-c2nc3n(c2-c2ccc4sccc4c2)CCC3)nc1 [OSA_000822]
4,–,–,–,–,c1ccc(-c2nc3n(c2-c2ccc4occc4c2)CCC3)nc1 [compound 821]

# Source: publication PMC10714399, “Open Source Antibiotics: Simple Diarylimidazoles Are Potent against Methicillin-Resistant Staphylococcus aureus” (ACS Infectious Diseases, 2023)
